# Source: US12583866B2, “Pyrido[2,3-b][1,4]oxazines or tetrahydropyrido[2,3-b][1,4]oxazepines as IAP antagonists” (BEIGENE, LTD., priority 2020, dated 2026)
# Columns and labels:
# [1] = target: T1, recombinant human XIAP-BIR3 protein (Homo sapiens, UniProt P98170); assay: Recombinant human XIAP-BIR3 biochemical assay (HTRF, peptide displacement); details: 3.7 nM XIAP-BIR3, 7.6 nM AbuRPF-K(5-Fam)-NH2 peptide, read-out: Protein binding IC50 (nM) XIAP
# T1 construct: recombinant human XIAP-BIR3 protein; purchased Reaction biology APT-11-374
# In short: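 3.7 nM His-tagged XIAP-BIR3 was preincubated 1 h RT with compound (top 10 µM, 4-fold, 10 points) in 20 mM HEPES pH 7.5, 50 mM NaCl, 0.005% Tween-20, 1 mM DTT. 7.6 nM AbuRPF-K(5-Fam)-NH2 peptide was then added, followed by anti-6His Tb cryptate, 1 h each. HTRF 520/490 nm ratio; four-parameter logistic IC50.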
# [2] = target: T2, recombinant human cIAP2-BIR3 protein (Homo sapiens, UniProt Q13489); assay: Recombinant human c-IAP2-BIR3 biochemical assay (HTRF, peptide displacement); details: 3.7 nM cIAP2-BIR3, 3.7 nM AbuRPF-K(5-Fam)-NH2 peptide, read-out: Protein binding IC50 (nM) c-IAP2
# T2 construct: recombinant human cIAP2-BIR3 protein; purchased Reaction biology APT-11-372
# In short: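 3.7 nM protein pre-incubated 1 h at room temperature with compounds (top 10 uM, 4-fold, 10 points) in 20 mM HEPES pH 7.5, 50 mM NaCl, 0.005% Tween-20, 1 mM DTT. Then 3.7 nM AbuRPF-K(5-Fam)-NH2 for 1 h, then anti-6His Tb cryptate 1 h. IC50 from 520/490 nm HTRF ratio, four-parameter logistic fit.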
# [3] = target: T3, recombinant human cIAP1-BIR3 protein (Homo sapiens, UniProt Q13490); assay: Recombinant human c-IAP1-BIR3 biochemical assay (HTRF, peptide displacement); details: 1.2 nM cIAP1-BIR3, 3 nM AbuRPF-K(5-Fam)-NH2 peptide, read-out: Protein binding IC50 (nM) c-IAP1
# T3 construct: recombinant human cIAP1-BIR3 protein; purchased Reaction biology APT-11-370
# In short: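 1.2 nM cIAP1-BIR3 preincubated 1 h at room temperature with compound (10 points, 4-fold, top 10 uM) in 20 mM HEPES pH 7.5, 50 mM NaCl, 1 mM DTT; 3 nM AbuRPF-K(5-Fam)-NH2 then added for 1 h, then anti-6His Tb cryptate for 1 h. 520/490 nm ratio; IC50 by four-parameter logistic fit.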
# T2 sequence (Q13489 238-349 limits assumed): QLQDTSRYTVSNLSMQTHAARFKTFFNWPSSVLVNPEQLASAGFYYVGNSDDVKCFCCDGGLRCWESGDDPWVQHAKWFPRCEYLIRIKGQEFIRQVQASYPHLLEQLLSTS
# T3 sequence (Q13490 253-363 limits assumed): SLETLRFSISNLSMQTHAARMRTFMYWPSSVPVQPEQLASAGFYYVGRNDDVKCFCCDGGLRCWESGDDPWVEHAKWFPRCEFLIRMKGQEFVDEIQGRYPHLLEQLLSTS
# T1 sequence (P98170 241-356 limits assumed): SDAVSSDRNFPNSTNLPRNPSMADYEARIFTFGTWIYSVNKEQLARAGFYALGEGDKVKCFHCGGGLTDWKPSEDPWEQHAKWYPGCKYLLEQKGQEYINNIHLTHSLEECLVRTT
SMILES,IC50 [1] [nM],IC50 [2] [nM],IC50 [3] [nM]
"C[C@@H]1CN(CC(=O)N2c3cc(Cc4ccc(F)cc4)c(C(=O)N4CC[C@H](F)C4)nc3OC[C@@H]2C)[C@@H](CN2[C@H](C)COC[C@H]2C)CN1 [Compound 100, 2-((2R,5R)-2-(((3R,5R)-3,5-dimethylmorpholino)methyl)-5-methylpiperazin-1-yl)-1-((S)-7-(4-fluorobenzyl)-6-((S)-3-fluoropyrrolidine-1-carbonyl)-2-methyl-2,3-dihydro-1H-pyrido[2,3-b][1,4]oxazin-1-yl)ethan-1-one]",4.2,0.44,0.17
"CC(C)C(=O)Nc1nc2c(cc1Cc1ccc(F)cc1)N(C(=O)CN1C[C@@H](C)NC[C@@H]1CN1[C@H](C)COC[C@H]1C)[C@@H](C)CO2 [Compound 118, N—((S)-1-(2-((2R,5R)-2-(((3R,5R)-3,5-dimethylmorpholino)methyl)-5-methylpiperazin-1-yl)acetyl)-7-(4-fluorobenzyl)-2-methyl-2,3-dihydro-1H-pyrido[2,3-b][1,4]oxazin-6-yl)isobutyramide]",4.8,0.19,0.16
COCCNc1nc2c(cc1Cc1ccc(F)cc1)N(C(=O)CN1C[C@@H](C)NC[C@@H]1CN1[C@H](C)COC[C@H]1C)[C@@H](C)CO2 [Compound 108],7.7,0.57,0.16
"C[C@@H]1CN(CC(=O)N2c3cc(Cc4ccc(F)cc4)c(CO)nc3OC[C@@H]2C)[C@@H](CN2CCOC[C@H]2C)CN1 [Compound 25, 1-((S)-7-(4-fluorobenzyl)-6-(hydroxymethyl)-2-methyl-2,3-dihydro-1H-pyrido[2,3-b][1,4]oxazin-1-yl)-2-((2R,5R)-5-methyl-2-(((R)-3-methylmorpholino)methyl)piperazin-1-yl)ethan-1-one]",6,0.5,0.3
"CC1CN(C(=O)CN2C[C@@H](C)NC[C@@H]2CN2CCOC[C@H]2C)c2cc(Cc3ccc(F)cc3)cnc2O1 (stereo partly drawn) [Compound 10, 1-(7-(4-fluorobenzyl)-3-methyl-2,3-dihydro-1H-pyrido[2,3-b][1,4]oxazin-1-yl)-2-((2R,5R)-5-methyl-2-(((R)-3-methylmorpholino)methyl)piperazin-1-yl)ethan-1-one]",264,52,14
"C[C@@H]1CN(CC(=O)N2CCOc3nc(O)c(Cc4ccc(F)cc4)cc32)[C@@H](CN2CCOC[C@H]2C)CN1 [Compound 9, 1-(7-(4-fluorobenzyl)-6-hydroxy-2,3-dihydro-1H-pyrido[2,3-b][1,4]oxazin-1-yl)-2-((2R,5R)-5-methyl-2-(((R)-3-methylmorpholino)methyl)piperazin-1-yl)ethan-1-one]",10,1.3,0.85
"C[C@@H]1CN(CC(=O)N2CCOc3nc(C(F)(F)F)c(Cc4ccc(F)cc4)cc32)[C@@H](CN2CCOC[C@H]2C)CN1 [Compound 7, 1-(7-(4-fluorobenzyl)-6-(trifluoromethyl)-2,3-dihydro-1H-pyrido[2,3-b][1,4]oxazin-1-yl)-2-((2R,5R)-5-methyl-2-(((R)-3-methylmorpholino)methyl)piperazin-1-yl)ethan-1-one]",99,6.8,1.3
C[C@@H]1CN(CC(=O)N2c3cc(Cc4ccc(F)cc4)c(C(=O)N4CCN(C)CC4)nc3OC[C@@H]2C)[C@@H](CN2[C@H](C)COC[C@H]2C)CN1 [Compound 104],18.1,0.83,0.26
"CC(C)[C@H]1COc2ncc(Cc3ccc(F)cc3)cc2N1C(=O)CN1C[C@@H](C)NC[C@@H]1CN1CCOC[C@H]1C [Compound 47, 1-((S)-7-(4-fluorobenzyl)-2-isopropyl-2,3-dihydro-1H-pyrido[2,3-b][1,4]oxazin-1-yl)-2-((2R,5R)-5-methyl-2-(((R)-3-methylmorpholino)methyl)piperazin-1-yl)ethan-1-one]",84,1.43,0.57
"C[C@@H]1CN(CC(=O)N2c3cc(Cc4ccc(F)cc4)c(C(N)=O)nc3OC[C@@H]2C)[C@@H](CN2CCOC[C@H]2C)CN1 [Compound 31, (S)-7-(4-fluorobenzyl)-2-methyl-1-(2-((2R,5R)-5-methyl-2-(((R)-3-methylmorpholino)methyl)piperazin-1-yl)acetyl)-2,3-dihydro-1H-pyrido[2,3-b][1,4]oxazine-6-carboxamide]",5.6,0.71,0.33
"C[C@@H]1CN(CC(=O)N2CCOc3nc(C4(O)CC4)c(Cc4ccc(F)cc4)cc32)[C@@H](CN2CCOC[C@H]2C)CN1 [Compound 21, 1-(7-(4-fluorobenzyl)-6-(1-hydroxycyclopropyl)-2,3-dihydro-1H-pyrido[2,3-b][1,4]oxazin-1-yl)-2-((2R,5R)-5-methyl-2-(((R)-3-methylmorpholino)methyl)piperazin-1-yl)ethan-1-one]",41,5.75,2.6
"C[C@@H]1CN(CC(=O)N2c3cc(Cc4ccc(F)cc4)c(C(=O)NC[C@H]4CCOC4)nc3OC[C@@H]2C)[C@@H](CN2[C@H](C)COC[C@H]2C)CN1 [Compound 96, (S)-1-(2-((2R,5R)-2-(((3R,5R)-3,5-dimethylmorpholino)methyl)-5-methylpiperazin-1-yl)acetyl)-7-(4-fluorobenzyl)-2-methyl-N—(((R)-tetrahydrofuran-3-yl)methyl)-2,3-dihydro-1H-pyrido[2,3-b][1,4]oxazine-6-carboxamide]",3.75,0.23,0.21
"C[C@@H]1CN(CC(=O)N2c3cc(Cc4ccc(F)cc4)c(CO)nc3OC[C@@H]2C)[C@@H](CN2CCOC[C@H]2C2CC2)CN1 [Example 84A, 2-((2R,5R)-2-(((R)-3-cyclopropylmorpholino)methyl)-5-methylpiperazin-1-yl)-1-((S)-7-(4-fluorobenzyl)-6-(hydroxymethyl)-2-methyl-2,3-dihydro-1H-pyrido[2,3-b][1,4]oxazin-1-yl)ethan-1-one]",6.4,0.44,0.29
"C[C@@H]1CN(CC(=O)N2c3cc(Cc4ccc(F)cc4)c(C(=O)NCCO)nc3OC[C@@H]2C)[C@@H](CN2[C@H](C)COC[C@H]2C)CN1 [Example 73, (S)-1-(2-((2R,5R)-2-(((3R,5R)-3,5-dimethylmorpholino)methyl)-5-methylpiperazin-1-yl)acetyl)-7-(4-fluorobenzyl)-N-(2-hydroxyethyl)-2-methyl-2,3-dihydro-1H-pyrido[2,3-b][1,4]oxazine-6-carboxamide]",4.3,0.29,0.18
"C[C@@H]1CN(CC(=O)N2c3cc(Cc4ccc(F)cc4)c(C(=O)N[C@@H]4CCOC4)nc3OC[C@@H]2C)[C@@H](CN2[C@H](C)COC[C@H]2C)CN1 [Example 78, (S)-1-(2-((2R,5R)-2-(((3R,5R)-3,5-dimethylmorpholino)methyl)-5-methylpiperazin-1-yl)acetyl)-7-(4-fluorobenzyl)-2-methyl-N—((R)-tetrahydrofuran-3-yl)-2,3-dihydro-1H-pyrido[2,3-b][1,4]oxazine-6-carboxamide]",3.2,0.31,0.17
"C[C@@H]1CN(CC(=O)N2c3cc(Cc4ccc(F)cc4)c(CO)nc3OC[C@@H]2C)[C@@H](CN2CCOC[C@H]2C(F)(F)F)CN1 [Compound 91A, 1-((S)-7-(4-fluorobenzyl)-6-(hydroxymethyl)-2-methyl-2,3-dihydro-1H-pyrido[2,3-b][1,4]oxazin-1-yl)-2-((2R,5R)-5-methyl-2-(((S)-3-(trifluoromethyl)morpholino)methyl)piperazin-1-yl)ethan-1-one]",30,1.25,0.72
"CCNC(=O)c1nc2c(cc1Cc1ccc(F)cc1)N(C(=O)CN1C[C@@H](C)NC[C@@H]1CN1[C@H](C)COC[C@H]1C)[C@@H](C)CO2 [Example 65, (S)-1-(2-((2R,5R)-2-(((3R,5R)-3,5-dimethylmorpholino)methyl)-5-methylpiperazin-1-yl)acetyl)-N-ethyl-7-(4-fluorobenzyl)-2-methyl-2,3-dihydro-1H-pyrido[2,3-b][1,4]oxazine-6-carboxamide]",4.4,0.44,0.22
"Cc1nc2c(cc1Cc1ccc(F)cc1)N(C(=O)CN1C[C@@H](C)NC[C@@H]1CN1CCOC[C@H]1C)CCO2 [Compound 5, 1-(7-(4-fluorobenzyl)-6-methyl-2,3-dihydro-1H-pyrido[2,3-b][1,4]oxazin-1-yl)-2-((2R,5R)-5-methyl-2-(((R)-3-methylmorpholino)methyl)piperazin-1-yl)ethan-1-one]",18,1.1,0.7
C[C@@H]1CN(CC(=O)N2c3cc(Cc4ccc(F)cc4)c(O)nc3OC[C@@H]2C)[C@@H](CN2[C@H](C)COC[C@H]2C)CN1 [Example 81],2.9,0.42,0.18
